# Measured values: patent US20060234909A1, “Compositions and methods for increasing drug efficiency” (priority 2003, published 2006)
# Where two headings read alike, the source gives them in different places. Ends that are not written are not given here.
# How the values were obtained:
# [1] = test system: HUVEC; test: Cytotoxicity assay (monolayer), HUVEC; assay type: cell-based; conditions: ML (monolayer), read-out: HUVEC (EC50 Ave) ML
# [2] = test system: MCF-7 cells
# [3] = target: T1, Human Src (Homo sapiens, UniProt P12931); test: Src kinase assay (PKLight ATP utilization, substrate phosphorylation as % of parent peptide); assay type: biochemical
# T1 construct: purchased Upstate (Charlottesville, Va.) 14-326
# Outline: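 Recombinant human Src or Akt phosphorylated peptide or drug–peptide conjugate substrates (25, 50, 100 μM) at 30° C for 2–5 hours, in Tris-HCl pH 7.5 buffer with MgCl2 and ATP. ATP use was read by luciferase luminescence against no-substrate and no-ATP controls. Phosphorylation was taken from the linear range and expressed as % of the parent peptide.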
# [4] = test system: tubulin; test: Fluorescence-based tubulin polymerization assay (MPA; enhancement for paclitaxel, inhibition for vinblastine); assay type: biochemical
# Outline: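 Tubulin polymerisation was followed by fluorescence (ex 360/em 405 nm) with 1 mg/ml BSA in all assays. For paclitaxel conjugates, glycerol was omitted. Parent drugs and conjugates were tested at 0.75, 1.5, 3 and 10 micromolar final, and values come from the linear range of the dose responses.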
# [5] = test system: HT-29 cells
# [6] = in vitro; conditions: human
# [7] = test system: HT-29 colorectal carcinoma; test: Cytotoxicity assay (monolayer), HT-29; assay type: cell-based; conditions: HT29, ML (monolayer), read-out: HT29 (EC50 Ave) ML;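 note: monolayer cultures tested in triplicate, compound exposure for three days against DMSO vehicle controls, EC50 fitted from dose-response curves and averaged across all tests and lots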
# [8] = test system: Normal human foreskin fibroblasts (HFF)
# [9] = Serum stability in RPMI1640 medium containing 10% fetal bovine serum; assay type: in vitro ADME; conditions: for remaining at 4 h, 10 μM / remaining at 8 h, 10 μM / remaining at 24 h, 10 μM / remaining at 72 h, 10 μM / half-life at 10 μM: bovine; for remaining at 4 h, 10 μM: read-out: Relative Percent Remaining at 4 hr; for remaining at 8 h, 10 μM: read-out: Relative Percent Remaining at 8 hr; for remaining at 24 h, 10 μM: read-out: Relative Percent Remaining at 24 hr; for remaining at 72 h, 10 μM: read-out: Relative Percent Remaining at 72 hr; for half-life at 10 μM: read-out: T½ (converted)
# Procedure: The stability of conjugates was measured in RPMI1640 cell culture medium containing 10% fetal bovine serum. The serum-containing medium was pre-warmed at 37° C. for 3 min prior to addition of test articles. Test articles, prepared in DMSO as 5 mM stocks, were added to the cell culture media to a final concentration of 10 μM. Aliquots ([…]) were withdrawn in triplicate at 0, 4, 8, 24 and 72 hours and combined with the same volume of ice-cold acetonitrile to terminate the reaction. The mixture was centrifuged at 2,000×g for 10 minutes. One part of the supernatant was mixed with four parts of deionized water to bring down the percentage of organic solvent. The diluted samples were then assayed by LC/MS for the test article. The natural log of the percent remaining was plotted versus time. A linear fit was used to determine the rate constant. The fit was truncated after the percent of remaining test article was less than 10%. The elimination half-lives associated with the disappearance of test articles were determined to compare their relative stability. The assays were carried out by Absorption Systems (Exton, Pa.).
# [10] = test system: tumor cells vs normal cells; test: Cytotoxic selectivity index (normal cells in monolayer vs tumor cells in soft agar)
# [11] = test system: MCF-7 breast carcinoma; test: Cytotoxicity assay (monolayer), MCF-7; assay type: cell-based; conditions: MCF7, ML (monolayer), read-out: MCF7 (EC50 Ave) ML;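 note: cells treated 72 h with 6-8 compound doses versus DMSO vehicle controls, EC50 fitted by 4-parameter dose-response curves, averaged across all tests and lots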
# [12] = test system: HT-29 cells; test: cells; conditions: Homo sapiens
# [13] = test system: Normal human foreskin fibroblasts (HFF); test: cells; conditions: Fibroblast
# [14] = test system: MCF-7 cells; test: cells; conditions: Homo sapiens
# [15] = target: Met kinase (Homo sapiens, UniProt P08581); conditions: Hays and Watowich 2003; read-out: Km as substrate for Met kinase; cited from earlier work
# [16] = target: Tie-2 (Homo sapiens, UniProt Q02763); conditions: Deng et al. 2001; read-out: Km as substrate for Tie-2; cited from earlier work
# [17] = target: Akt (Homo sapiens, UniProt P31749); conditions: Akt peptide substrates, Alessi et al. 1996; cited from earlier work
# [18] = read-out: MCF7 (EC50 Ave) SA, MCF7, SA (soft agar)
# [19] = read-out: HT29 (EC50 Ave) SA, HT29, SA (soft agar)
# [20] = read-out: HFF (EC50 Ave) ML, HFF, ML (monolayer)
# [21] = read-out: MCF-7 Soft Agar EC50, MCF-7 tumor cells, soft agar, 10-14 days, mean ± SD
# [22] = read-out: HT-29 Soft Agar EC50, HT-29 tumor cells, soft agar, 10-14 days, mean ± SD
# [23] = read-out: HFFMonolayer EC50, HFF normal cells, monolayer, 72 hours, mean ± SD
# [24] = HT-29, read-out: HT29 (EC50 Ave) SA
# [25] = MCF7, read-out: MCF7 (EC50 Ave) SA
# Akt, sequence (P31749 whole entry): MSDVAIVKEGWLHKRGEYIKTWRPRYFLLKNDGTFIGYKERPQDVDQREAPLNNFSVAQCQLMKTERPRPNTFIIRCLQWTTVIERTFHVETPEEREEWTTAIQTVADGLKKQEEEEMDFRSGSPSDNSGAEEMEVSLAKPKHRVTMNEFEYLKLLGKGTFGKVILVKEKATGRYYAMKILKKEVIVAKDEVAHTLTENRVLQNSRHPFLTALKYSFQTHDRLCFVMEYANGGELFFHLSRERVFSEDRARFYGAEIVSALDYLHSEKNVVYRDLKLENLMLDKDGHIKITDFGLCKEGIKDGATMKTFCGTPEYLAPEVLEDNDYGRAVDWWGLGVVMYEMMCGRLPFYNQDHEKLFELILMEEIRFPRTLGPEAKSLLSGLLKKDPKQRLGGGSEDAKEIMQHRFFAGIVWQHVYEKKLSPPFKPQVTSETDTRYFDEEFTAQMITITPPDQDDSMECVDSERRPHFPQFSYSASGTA
# Met kinase, sequence (P08581 25-1390): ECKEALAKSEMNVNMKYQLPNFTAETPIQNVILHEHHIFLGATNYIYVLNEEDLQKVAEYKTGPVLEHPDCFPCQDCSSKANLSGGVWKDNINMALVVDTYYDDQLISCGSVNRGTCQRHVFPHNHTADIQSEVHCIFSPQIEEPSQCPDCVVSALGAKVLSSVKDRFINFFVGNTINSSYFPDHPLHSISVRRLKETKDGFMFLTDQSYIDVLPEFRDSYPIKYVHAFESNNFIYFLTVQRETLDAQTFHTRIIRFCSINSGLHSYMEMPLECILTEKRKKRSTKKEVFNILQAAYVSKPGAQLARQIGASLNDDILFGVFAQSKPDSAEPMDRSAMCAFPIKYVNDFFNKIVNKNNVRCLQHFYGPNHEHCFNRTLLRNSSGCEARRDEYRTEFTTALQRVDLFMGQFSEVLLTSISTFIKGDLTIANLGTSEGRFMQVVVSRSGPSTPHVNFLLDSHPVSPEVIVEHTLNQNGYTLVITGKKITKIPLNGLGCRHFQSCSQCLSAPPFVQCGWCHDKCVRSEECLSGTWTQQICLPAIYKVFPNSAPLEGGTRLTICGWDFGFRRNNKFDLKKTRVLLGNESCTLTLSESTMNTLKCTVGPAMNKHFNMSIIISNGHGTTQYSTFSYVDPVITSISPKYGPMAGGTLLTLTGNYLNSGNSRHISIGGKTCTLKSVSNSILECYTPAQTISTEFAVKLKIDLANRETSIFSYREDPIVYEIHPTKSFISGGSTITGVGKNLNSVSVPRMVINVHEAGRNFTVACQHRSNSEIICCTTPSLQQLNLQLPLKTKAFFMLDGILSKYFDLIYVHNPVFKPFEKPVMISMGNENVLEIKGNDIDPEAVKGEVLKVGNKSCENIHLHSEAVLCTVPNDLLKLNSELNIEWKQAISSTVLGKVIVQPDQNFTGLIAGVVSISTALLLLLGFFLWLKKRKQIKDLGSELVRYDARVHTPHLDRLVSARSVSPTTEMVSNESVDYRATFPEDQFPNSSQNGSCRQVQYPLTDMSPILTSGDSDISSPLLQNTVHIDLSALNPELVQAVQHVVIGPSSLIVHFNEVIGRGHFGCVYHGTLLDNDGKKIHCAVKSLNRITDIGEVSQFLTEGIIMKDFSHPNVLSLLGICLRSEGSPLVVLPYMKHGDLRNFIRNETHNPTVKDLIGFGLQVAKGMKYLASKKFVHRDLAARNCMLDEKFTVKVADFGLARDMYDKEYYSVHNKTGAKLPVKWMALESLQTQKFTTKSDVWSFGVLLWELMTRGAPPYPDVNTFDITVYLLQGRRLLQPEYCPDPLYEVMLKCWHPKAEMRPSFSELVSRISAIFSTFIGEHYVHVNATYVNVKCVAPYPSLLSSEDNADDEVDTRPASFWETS
# T1 sequence (P12931 whole entry): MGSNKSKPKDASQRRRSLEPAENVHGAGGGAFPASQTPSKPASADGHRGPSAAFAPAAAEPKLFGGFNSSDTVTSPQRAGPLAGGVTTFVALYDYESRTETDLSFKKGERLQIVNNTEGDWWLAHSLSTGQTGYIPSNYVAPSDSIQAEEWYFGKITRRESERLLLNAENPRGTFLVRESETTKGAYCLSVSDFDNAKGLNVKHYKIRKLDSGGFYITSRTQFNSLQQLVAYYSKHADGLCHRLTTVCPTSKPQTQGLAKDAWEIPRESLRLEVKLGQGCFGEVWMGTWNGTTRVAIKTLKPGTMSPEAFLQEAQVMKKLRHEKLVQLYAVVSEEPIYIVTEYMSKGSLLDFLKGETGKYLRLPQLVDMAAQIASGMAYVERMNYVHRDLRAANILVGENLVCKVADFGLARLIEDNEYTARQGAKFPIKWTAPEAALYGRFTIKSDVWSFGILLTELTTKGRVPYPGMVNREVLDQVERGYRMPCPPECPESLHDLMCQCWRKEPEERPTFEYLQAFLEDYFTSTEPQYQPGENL
# Tie-2, sequence (Q02763 23-1124, species assumed): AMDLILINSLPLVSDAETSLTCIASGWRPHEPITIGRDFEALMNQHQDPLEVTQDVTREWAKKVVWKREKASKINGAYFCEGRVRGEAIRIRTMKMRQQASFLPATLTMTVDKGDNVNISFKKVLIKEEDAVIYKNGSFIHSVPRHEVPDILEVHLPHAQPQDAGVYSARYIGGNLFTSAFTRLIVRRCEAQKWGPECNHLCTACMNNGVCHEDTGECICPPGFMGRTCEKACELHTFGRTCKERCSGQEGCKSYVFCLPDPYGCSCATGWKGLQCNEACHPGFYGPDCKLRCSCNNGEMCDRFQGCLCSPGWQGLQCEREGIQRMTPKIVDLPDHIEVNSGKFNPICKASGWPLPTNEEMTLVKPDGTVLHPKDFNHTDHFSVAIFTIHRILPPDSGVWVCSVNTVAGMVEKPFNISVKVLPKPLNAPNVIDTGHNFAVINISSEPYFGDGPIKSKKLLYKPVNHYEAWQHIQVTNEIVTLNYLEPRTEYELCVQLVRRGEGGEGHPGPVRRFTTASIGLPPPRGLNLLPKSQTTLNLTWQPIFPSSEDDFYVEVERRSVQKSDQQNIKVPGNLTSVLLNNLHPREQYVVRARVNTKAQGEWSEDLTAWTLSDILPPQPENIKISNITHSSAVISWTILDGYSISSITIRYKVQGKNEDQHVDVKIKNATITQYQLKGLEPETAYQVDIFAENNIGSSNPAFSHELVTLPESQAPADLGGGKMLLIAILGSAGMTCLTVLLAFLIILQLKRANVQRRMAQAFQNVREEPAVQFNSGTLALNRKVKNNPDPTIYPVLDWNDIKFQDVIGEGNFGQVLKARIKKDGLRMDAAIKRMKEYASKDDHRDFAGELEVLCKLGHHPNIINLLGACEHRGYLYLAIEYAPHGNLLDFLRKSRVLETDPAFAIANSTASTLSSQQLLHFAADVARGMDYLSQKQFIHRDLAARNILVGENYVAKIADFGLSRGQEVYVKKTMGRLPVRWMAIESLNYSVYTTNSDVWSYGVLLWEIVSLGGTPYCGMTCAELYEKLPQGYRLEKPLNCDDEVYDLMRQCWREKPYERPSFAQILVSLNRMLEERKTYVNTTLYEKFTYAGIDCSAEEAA
Molecule,EC50 [1] [µM],"EC50 [2, 18] [µM]",Ave. MPA Act. [4],"EC50 [5, 19] [µM]",EC50 [7] [µM],"EC50 [8, 20] [µM]",Relative Percent Remaining at 0 hr [9] [%],"remaining at 4 h, 10 μM [9] [%]","remaining at 8 h, 10 μM [9] [%]","remaining at 24 h, 10 μM [9] [%]","remaining at 72 h, 10 μM [9] [%]",half-life at 10 μM [9] [h],Cytotoxic Selectivity Index HFF/HT29 [10],EC50 [11] [µM],other results
CC[C@H](C)[C@H](NC(=O)[C@H](Cc1ccc(O)cc1)NC(=O)[C@H](CCC(=O)O)NC(C)=O)C(=O)N[C@@H](Cc1ccc(O)cc1)C(=O)NCC(=O)N[C@@H](CO)C(=O)N[C@@H](Cc1ccccc1)C(=O)N[C@@H](CCCCN)C(=O)NCCCOCCOCCOCCCNC(=O)O[C@H]1C(=O)[C@@]2(C)[C@H]([C@H](OC(=O)c3ccccc3)[C@]3(O)C[C@H](OC(=O)[C@H](O)[C@@H](NC(=O)c4ccccc4)c4ccccc4)C(C)=C1C3(C)C)[C@]1(OC(C)=O)CO[C@@H]1C[C@@H]2O,> 0.1,> 0.1,B (B=50-80),> 0.1,> 0.1,> 0.1,100,95,99,69,22,32,20.5,> 0.1,Average src kinase activity [3]: C (C>40); selectivity ratio [6]: 24.1
CC[C@H](C)[C@H](NC(=O)[C@H](Cc1ccc(O)cc1)NC(=O)OCc1ccccc1)C(=O)N[C@@H](Cc1ccc(O)cc1)C(=O)NCC(=O)N[C@@H](CO)C(=O)N[C@@H](Cc1ccccc1)C(=O)N[C@@H](CCCCN)C(=O)NCCOCCOCCOCCNC(=O)[C@@]1(O)[C@H](O)[C@]2(CC)C=CCN3CC[C@@]4(c5cc([C@@]6(C(=O)OC)C[C@@H]7CN(CCc8c6[nH]c6ccccc86)C[C@](O)(CC)C7)c(OC)cc5N(C)[C@@H]14)[C@@H]32 [CBz-YIYGSFK-PEG(11)-3Am-VBL],> 0.1,> 0.1,,> 0.1,> 0.1,> 0.1,100,88,102,100,61,> 72,1.4,> 0.1,"EC50 [2, 21]: 0.156 ± 0.037 µM; EC50 [5, 22]: 0.464 ± 0.351 µM; EC50 [8, 23]: 0.655 ± 0.186 µM; Cytotoxic Selectivity Index HFF/MCF7 [10]: 4.2"
CC(=O)O[C@H]1C(=O)[C@@]2(C)[C@H]([C@H](OC(=O)c3ccccc3)[C@]3(O)C[C@H](OC(=O)[C@H](O)[C@@H](NC(=O)c4ccccc4)c4ccccc4)C(C)=C1C3(C)C)[C@]1(OC(C)=O)CO[C@@H]1C[C@@H]2O [Paclitaxel (PXL)],,,C (C>80),,,,,,,,,,,,"EC50 [12, 24]: < 0.02 µM; EC50 ([1]; Homo sapiens): < 0.02 µM; EC50 ([13]; read-out: HFF (EC50 Ave) ML): < 0.02 µM; EC50 ([7]; Homo sapiens, HT-29): < 0.02 µM; EC50 [14, 25]: < 0.02 µM; EC50 ([11]; Homo sapiens): < 0.02 µM"
CC[C@H](C)[C@H](NC(=O)[C@H](Cc1ccc(O)cc1)NC(=O)C(C)(C)C)C(=O)N[C@@H](Cc1ccc(O)cc1)C(=O)NCC(=O)N[C@@H](CO)C(=O)N[C@@H](Cc1ccccc1)C(=O)N[C@@H](CCCNC(=N)N)C(=O)NCCCOCCOCCOCCCNC(=O)O[C@H]1C(=O)[C@@]2(C)[C@H]([C@H](OC(=O)c3ccccc3)[C@]3(O)C[C@H](OC(=O)[C@H](O)[C@@H](NC(=O)c4ccccc4)c4ccccc4)C(C)=C1C3(C)C)[C@]1(OC(C)=O)CO[C@@H]1C[C@@H]2O [Pv-YIYGSFR-PEG(13)-10Ca-PXL],> 0.1,0.02 to 0.1,B (B=50-80),> 0.1,> 0.1,> 0.1,100,73,63,63,64,> 72,12.3,> 0.1,"EC50 [2, 21]: 0.08 ± 0.013 µM; EC50 [5, 22]: 0.175 ± 0.043 µM; EC50 [8, 23]: 2.14 µM; Cytotoxic Selectivity Index HFF/MCF7 [10]: 26.6"
CC[C@]1(O)C[C@@H]2CN(CCc3c([nH]c4ccccc34)[C@@](C(=O)OC)(c3cc4c(cc3OC)N(C)[C@H]3[C@@](O)(C(=O)OC)[C@H](OC(C)=O)[C@]5(CC)C=CCN6CC[C@]43[C@@H]65)C2)C1 [Vinblastine (VBL)],,,C (C>80),,,,,,,,,,,,"EC50 [12, 24]: < 0.02 µM; EC50 ([1]; Homo sapiens): < 0.02 µM; EC50 ([13]; read-out: HFF (EC50 Ave) ML): < 0.02 µM; EC50 ([7]; Homo sapiens, HT-29): < 0.02 µM; EC50 [14, 25]: < 0.02 µM; EC50 ([11]; Homo sapiens): < 0.02 µM"
"CC[C@]1(O)C[C@@H]2CN(CCc3c([nH]c4ccccc34)[C@@](C(=O)OC)(c3cc4c(cc3OC)N(C)[C@H]3[C@@](O)(C(=O)OC)[C@H](OC(C)=O)[C@]5(CC)C=CCN6CC[C@]43[C@@H]65)C2)C1 [Vinblastine, reference compound]",,,,,,,100,95,95,87,67,> 72,,,"EC50 ([12]; HT-29, read-out: HT-29 Soft Agar EC50): 0.007 ± 0.007 µM; EC50 ([13]; 72 h, read-out: HFFMonolayer EC50): 0.0015 ± 0.0005 µM; selectivity ratio [6]: 0.2; EC50 ([14]; MCF7, read-out: MCF-7 Soft Agar EC50): 0.007 ± 0.005 µM"
DSDVHVNATYVNVKCVAP [18 amino acid peptide substrate for Met kinase],,,,,,,,,,,,,,,Km [15]: 67 µM
RLVAYEGWV [nine amino acid peptide substrate for Tie-2],,,,,,,,,,,,,,,Km [16]: 119 µM
RPRAATF [peptide substrate for Akt from the literature],,,,,,,,,,,,,,,specificity with respect to related MAP kinase and S6 kinase [17]: exhibit specificity
RPRTSTF [peptide substrate for Akt from the literature],,,,,,,,,,,,,,,specificity with respect to related MAP kinase and S6 kinase [17]: exhibit specificity
